Laboratory results: US20250144067A1, “PERSONALIZED STARVATION THERAPY FOR CANCER” (Faeth Therapeutics, Inc., priority 2021, published 2025)
Where a name gives a salt, the structure may show the parent alone. Read-outs that look alike come from different tables or passages of the source.

Experiments:
[1] = test system: NCI-H292 lung cancer cells; assay: FDA drug screening, complete media vs cholesterol-free media with simvastatin (TABLE 2); assay type: cell-based, human
[2] = test system: NCI-H292 lung cancer cells; assay: FDA drug screening, complete media vs cholesterol-free media without statin (TABLE 1); assay type: cell-based, human
[3] = NCI-H292 cells, cholesterol-free media with simvastatin 0.04 μM, cell growth value in FDA drug screen
[4] = NCI-H292 cells, complete media, cell growth value in FDA drug screen
[5] = complete media minus cholesterol-free media + simvastatin, >0 enhanced anti-cancer activity, about 0 neutral, <0 antagonist
[6] = Complete minus Cholesterol-free, greater than 0 enhanced anti-cancer activity, about 0 neutral, below 0 antagonist
[7] = NCI-H292 cells, FDA drug library screen, cholesterol-free media without statin
[8] = NCI-H292 cells, FDA drug library screen, complete media
[9] = Complete minus Cholesterol-free, >0 enhanced anti-cancer activity, about 0 neutral, <0 antagonist
[10] = NCI-H292 cells, cholesterol-free media without statin
[11] = NCI-H292 cells, FDA drug library screen, cholesterol-free media with simvastatin 0.04 μM
[12] = complete media minus cholesterol-free media + simvastatin, […]
[13] = Complete minus Cholesterol-free, […]
[14] = NCI-H292 cells, cholesterol-free media without statin, FDA drug library screen
[15] = NCI-H292 cells, complete media, FDA drug library screen
[16] = complete vs cholesterol-free media, […]
[17] = complete media vs cholesterol-free media + simvastatin (0.04 μM), >0 enhanced anti-cancer activity, about 0 neutral, <0 antagonist
[18] = complete vs cholesterol-free media, >0 enhanced anti-cancer activity, about 0 neutral, <0 antagonist
[19] = NCI-H292 cells, cholesterol-free media with simvastatin 0.04 μM, FDA drug library screen (TABLE 2)
[20] = NCI-H292 cells, complete media, FDA drug library screen (TABLE 2)
[21] = NCI-H292 cells, drug in cholesterol-free media with simvastatin 0.04 μM
[22] = NCI-H292 cells, drug in complete media
[23] = complete vs cholesterol-free media, greater than 0 enhanced anti-cancer activity, about 0 neutral, below 0 antagonists

CCC[C@@H]1C[C@@H](C(=O)N[C@@H]([C@H]2O[C@H](SC)[C@H](O)[C@@H](O)[C@H]2O)[C@H](C)Cl)N(C)C1 [Clindamycin (hydrochloride)]
Cholesterol-free media + simvastatin (0.04 μM) [1, 3]: 1.243 | Complete Media [1, 4]: 1.299 | Difference [1, 5]: 0.06 | Difference [2, 6]: −0.08 | Cholesterol-free [2, 7]: 1.009 | Complete [2, 8]: 0.9276

COC(=O)N(C)c1c(N)nc(-c2nn(Cc3ccccc3F)c3ncccc23)nc1N [Riociguat]
Cholesterol-free media + simvastatin (0.04 μM) [1, 3]: 1.101 | Complete Media [1, 4]: 1.185 | Difference [1, 5]: 0.08 | Difference [2, 9]: −0.22 | Cholesterol-free [2, 10]: 0.9238 | Complete ([2]; NCI-H292 cells, complete media): 0.7003

CC(=O)O[C@H]1Cc2ccccc2N(C(N)=O)c2ccccc21 [Eslicarbazepine acetate]
Cholesterol-free media + simvastatin (0.04 μM) [1, 3]: 1.032 | Complete Media [1, 4]: 1.104 | Difference [1, 5]: 0.07 | Difference [2, 9]: −0.21 | Cholesterol-free [2, 10]: 0.9987 | Complete ([2]; NCI-H292 cells, complete media): 0.7874

Trimebutine (maleate)
Cholesterol-free media + simvastatin (0.04 μM) [1, 11]: 0.6516 | Complete Media [1, 8]: 0.9282 | Difference [1, 12]: 0.28 | Difference [2, 13]: −0.13 | Cholesterol-free [2, 7]: 0.9442 | Complete [2, 8]: 0.8142

C[C@]12CC[C@H](O)CC1=CC[C@@H]1[C@@H]2CC[C@]2(C)C(=O)CC[C@@H]12 [DHEA]
Cholesterol-free media + simvastatin (0.04 μM) ([1]; NCI-H292 cells, FDA library drug in cholesterol-free media with simvastatin 0.04 μM): 1.034 | Complete Media ([1]; NCI-H292 cells, FDA library drug in complete media): 0.7371 | Difference ([1]; complete media vs cholesterol-free media + simvastatin (0.04 μM), […]): −0.30 | Cholesterol-free [2, 14]: 1.449 | Complete [2, 15]: 1.634 | Difference [2, 16]: 0.19

COc1cc(OC)c(C(=O)CCCN2CCCC2)c(OC)c1 [Buflomedil (hydrochloride)]
Cholesterol-free media + simvastatin (0.04 μM) [1, 11]: 0.7629 | Complete Media [1, 8]: 1.555 | Difference [1, 5]: 0.79 | Difference [2, 9]: −0.02 | Cholesterol-free [2, 14]: 0.6014 | Complete [2, 15]: 0.5837

COC[C@H]1C[C@@H](c2nc(-c3ccc4c(c3)COc3cc5c(ccc6nc([C@@H]7CC[C@H](C)N7C(=O)[C@@H](NC(=O)OC)C(C)C)[nH]c65)cc3-4)c[nH]2)N(C(=O)[C@H](NC(=O)OC)c2ccccc2)C1 [Velpatasvir]
Cholesterol-free media + simvastatin (0.04 μM) [1, 3]: 0.7455 | Complete Media [1, 4]: 0.7768 | Difference [1, 5]: 0.03 | Difference [2, 9]: −0.30 | Cholesterol-free [2, 10]: 1.014 | Complete ([2]; NCI-H292 cells, complete media): 0.7173

Carbinoxamine maleate salt
Cholesterol-free media + simvastatin (0.04 μM) [1, 11]: 0.757 | Complete Media [1, 8]: 1.12 | Difference [1, 5]: 0.36 | Difference [2, 9]: −0.20 | Cholesterol-free [2, 10]: 1.129 | Complete ([2]; NCI-H292 cells, complete media): 0.9247

CCc1c(C)[nH]c2c1C(=O)C(CN1CCOCC1)CC2 (centres unmarked) [Molindone (hydrochloride)]
Cholesterol-free media + simvastatin (0.04 μM) [1, 11]: 0.9443 | Complete Media [1, 8]: 0.8609 | Difference [1, 17]: −0.08 | Difference [2, 9]: −0.28 | Cholesterol-free [2, 10]: 1.138 | Complete ([2]; NCI-H292 cells, complete media): 0.8619

CCCCCCCCCC(=O)N[C@@H](Cc1c[nH]c2ccccc12)C(=O)N[C@H](CC(N)=O)C(=O)N[C@@H](CC(=O)O)C(=O)N[C@@H]1C(=O)NCC(=O)N[C@@H](CCCN)C(=O)N[C@@H](CC(=O)O)C(=O)N[C@H](C)C(=O)N[C@@H](CC(=O)O)C(=O)NCC(=O)N[C@H](CO)C(=O)N[C@@H]([C@H](C)CC(=O)O)C(=O)N[C@@H](CC(=O)c2ccccc2N)C(=O)O[C@@H]1C [Daptomycin]
Cholesterol-free media + simvastatin (0.04 μM) [1, 11]: 1.147 | Complete Media [1, 8]: 1.33 | Difference [1, 12]: 0.18 | Cholesterol-free [2, 10]: 1.025 | Complete ([2]; NCI-H292 cells, complete media): 0.6476 | Difference [2, 16]: −0.38

CCN1CCN(C(=O)N[C@@H](C(=O)N[C@@H]2C(=O)N3C(C(=O)O)=C(CSc4nnnn4C)CS[C@H]23)c2ccc(O)cc2)C(=O)C1=O [Cefoperazone]
Cholesterol-free media + simvastatin (0.04 μM) [1, 11]: 1.061 | Complete Media [1, 8]: 1.748 | Difference [1, 5]: 0.69 | Cholesterol-free [2, 14]: 0.8233 | Complete [2, 15]: 1.132 | Difference [2, 18]: 0.31

COc1cnc(NS(=O)(=O)c2ccc(N)cc2)nc1 [Sulfameter]
Cholesterol-free media + simvastatin (0.04 μM) [1, 19]: 0.9816 | Complete Media [1, 20]: 0.9471 | Difference ([1]; complete media minus cholesterol-free media + simvastatin (0.04 μM), >0 enhanced anti-cancer activity, about 0 neutral, <0 antagonist): −0.03 | Difference [2, 6]: −0.13 | Cholesterol-free [2, 7]: 0.9159 | Complete [2, 8]: 0.7824

N[C@@H]1CONC1=O [D-Cycloserine]
Cholesterol-free media + simvastatin (0.04 μM) [1, 21]: 1.193 | Complete Media [1, 22]: 1.005 | Difference [1, 17]: −0.19 | Cholesterol-free [2, 10]: 1.516 | Difference [2, 23]: −0.37

COc1ccc2cc([C@H](C)C(=O)O)ccc2c1 [Naproxen]
Cholesterol-free media + simvastatin (0.04 μM) [1, 3]: 0.9241 | Complete Media [1, 4]: 1.007 | Difference [1, 5]: 0.08 | Difference [2, 9]: −0.23 | Cholesterol-free [2, 10]: 1.155 | Complete ([2]; NCI-H292 cells, complete media): 0.9257

NCC1(CC(=O)O)CCCCC1 [Gabapentin (hydrochloride)]
Cholesterol-free media + simvastatin (0.04 μM) [1, 19]: 1.09 | Complete Media [1, 20]: 1.102 | Difference ([1]; complete media minus cholesterol-free media + simvastatin (0.04 μM), […]): 0.01 | Difference [2, 13]: −0.52 | Cholesterol-free ([2]; NCI-H292 cells in cholesterol-free media without statin): 1.513 | Complete ([2]; NCI-H292 cells in complete media): 0.9969

C[C@]1(Cn2ccnn2)[C@H](C(=O)O)N2C(=O)C[C@H]2S1(=O)=O [Tazobactam]
Cholesterol-free media + simvastatin (0.04 μM) [1, 11]: 1.141 | Complete Media [1, 8]: 1.299 | Difference [1, 5]: 0.16 | Difference [2, 6]: −0.10 | Cholesterol-free [2, 7]: 1.004 | Complete [2, 8]: 0.9006

O=C(NCCO[N+](=O)[O-])c1cccnc1 [Nicorandil]
Cholesterol-free media + simvastatin (0.04 μM) [1, 3]: 0.9809 | Complete Media [1, 4]: 1.055 | Difference [1, 5]: 0.07 | Cholesterol-free [2, 14]: 0.8284 | Complete [2, 15]: 1.354 | Difference [2, 18]: 0.53

CC(=O)[C@H]1CC[C@H]2[C@@H]3C[C@H](C)C4=CC(=O)CC[C@]4(C)[C@H]3[C@@H](O)C[C@]12C [Medrysone]
Cholesterol-free media + simvastatin (0.04 μM) [1, 21]: 1.51 | Complete Media [1, 22]: 1.254 | Difference [1, 17]: −0.26 | Cholesterol-free [2, 14]: 0.895 | Complete [2, 15]: 1.283 | Difference [2, 18]: 0.39

NC(=O)c1cccnc1 [Nicotinamide]
Cholesterol-free media + simvastatin (0.04 μM) [1, 11]: 0.9853 | Complete Media [1, 8]: 0.9029 | Difference [1, 17]: −0.08 | Difference [2, 6]: −0.17 | Cholesterol-free [2, 7]: 0.8882 | Complete [2, 8]: 0.716

CNC(=O)c1cc(Oc2ccc(NC(=O)Nc3ccc(Cl)c(C(F)(F)F)c3)cc2)ccn1 [Sorafenib]
Cholesterol-free media + simvastatin (0.04 μM) [1, 11]: 0.7364 | Complete Media [1, 8]: 0.915 | Difference [1, 5]: 0.18 | Cholesterol-free [2, 14]: 0.8045 | Complete [2, 15]: 1.015 | Difference [2, 18]: 0.21

CN1[C@@H]2CC[C@H]1C[C@@H](OC(=O)c1c[nH]c3ccccc13)C2 [Tropisetron]
Cholesterol-free media + simvastatin (0.04 μM) [1, 11]: 0.8445 | Complete Media [1, 8]: 1.139 | Difference [1, 5]: 0.29 | Cholesterol-free [2, 10]: 1.242 | Complete ([2]; NCI-H292 cells, complete media): 0.8867 | Difference [2, 23]: −0.36

Cl.NC(CO)(CO)CO [Trometamol (hydrochloride)]
Cholesterol-free media + simvastatin (0.04 μM) [1]: 1.673 | Complete Media [1]: 1.379 | Difference [1]: −0.29 | Cholesterol-free [2]: 0.9218 | Complete [2]: 0.6947 | Difference [2]: −0.23
